This assay concerns ORP150. Nature of the assay: Western-blot assay of ORP150 in HepG2 cells. The assay is classed as cell-based, Human. To be noted: 2 μm PDX, 24 hours, FIG. 3A. How it is done:
After collecting HepG2 cells, protein was extracted from the cells with a buffer (PRO-PREF; Intron Biotechnology, Seoul, Korea) at 4° C. for 1 hour. A protein sample (35 μg) was applied to 12% SDS-PAGE, transferred to a nitrocellulose film (Amersham Bioscience, Westborough, Mass., USA), detected with a primary antibody, followed by probing with a secondary antibody and another secondary antibody conjugated with horseradish […] (Santa Cruz Biotechnology). The sample was detected by ECL kit. Under 70% comfluency, 0 to 20 nmol/L […] (si)RNA oligonucleotide to ORP150 purchased from Santa Cruz Biotechnology was transfected to inhibit gene expression. Scramble siRNA was used as a control group. 2 or 4 μg of pCMV3-ORP150 (Sino Biological, Beijing, China) was transiently transfected, leading to over-expression of ORP150. pCMV3 empty-vector was used as a control group. According to instruction of the manufacturer, transfection was executed using lipofectamine 2000 (Invitrogen). The present inventors have executed western-blot assay of ORP150 in HepG2 cells transfected with scramble siRNA or siFOXO1 in the presence of 2 μm of PDX for 24 hours.

As to `CC/C=C\C[C@H](O)/C=C/C=C\C=C\[C@@H](O)C/C=C\C/C=C\CCC(=O)O` [PDX, 10S,17S-dihydroxy-docosa-4Z,7Z,11E,13Z,15E,19Z-hexaeonic acid], under “HepG2 cells transfected with FOXO1 siRNA”, the “PDX effects of promoting ORP150 expression” value was “inhibited”. For the same compound, the ORP150 expression level result (HepG2 cells, scramble siRNA) is on record as “increased”.

The values above are taken from US20190070140A1, “COMPOSITION COMPRISING PROTECTIN DX AS ACTIVE INGREDIENT FOR PREVENTING OR TREATING HYPERLIPIDEMIA OR FATTY LIVER DISEASE” (Solvit P&F, priority 2017, published 2019).
